Measured values from patent US20260048047A1, “SMALL-MOLECULE ACTIVATORS OF MYCOBACTERIUM TUBERCULOSIS ADENYLYL CYCLASE” (priority 2022, published 2026).

Tested on: M. tuberculosis
Test: Extracellular activity against M. tuberculosis in cholesterol media (Alamar Blue reduction assay)
Format: cell-based, Mycobacterium tuberculosis
Conditions: Mycobacterium tuberculosis, 240 h, 7H12-Cholesterol media, 10 days; read-out: Cholesterol broth: alamar blue--EC50

SMILES	EC50 [nM]
Cn1ncnc1CC(=O)N1C[C@H]2C[C@@H](C1)[C@@H]2c1nc(-c2ccc(Cl)c(F)c2)no1 [Compound 221, 1-((1R,5S,6r)-6-(3-(4-chloro-3-fluorophenyl)-1,2,4-oxadiazol-5-yl)-3-azabicyclo[3.1.1]heptan-3-yl)-2-(1-methyl-1H-1,2,4-triazol-5-yl)ethan-1-one]	100
Cn1ncnc1CC(=O)N1C[C@H]2C[C@@H](C1)[C@H]2c1nc(-c2ccc(Cl)c(F)c2)no1 [Compound 222, 1-((1R,5S,6s)-6-(3-(4-chloro-3-fluorophenyl)-1,2,4-oxadiazol-5-yl)-3-azabicyclo[3.1.1]heptan-3-yl)-2-(1-methyl-1H-1,2,4-triazol-5-yl)ethan-1-one]	> 10000
Cn1ncnc1CC(=O)N1C[C@H]2C[C@@H](C1)[C@@H]2c1nc(-c2ccc(Cl)cc2F)no1 [Compound 223, 1-((1R,5S,6r)-6-(3-(4-chloro-2-fluorophenyl)-1,2,4-oxadiazol-5-yl)-3-azabicyclo[3.1.1]heptan-3-yl)-2-(1-methyl-1H-1,2,4-triazol-5-yl)ethan-1-one]	290
Cn1ncnc1CC(=O)N1C[C@H]2C[C@@H](C1)[C@H]2c1nc(-c2ccc(Cl)cc2F)no1 [Compound 224, 1-((1R,5S,6s)-6-(3-(4-chloro-2-fluorophenyl)-1,2,4-oxadiazol-5-yl)-3-azabicyclo[3.1.1]heptan-3-yl)-2-(1-methyl-1H-1,2,4-triazol-5-yl)ethan-1-one]	> 10000
Cc1noc(CC(=O)N2CCC3(CC2)CC(c2nc(C4CCCCC4)no2)C3)n1 [Compound 225, 1-(2-(3-cyclohexyl-1,2,4-oxadiazol-5-yl)-7-azaspiro[3.5]nonan-7-yl)-2-(3-methyl-1,2,4-oxadiazol-5-yl)ethan-1-one]	> 10000
Cc1noc(CC(=O)N2CCC3(CC2)CC(c2nc(-c4ccc(Cl)c(Cl)c4)no2)C3)n1 [Compound 226, 1-(2-(3-(3,4-dichlorophenyl)-1,2,4-oxadiazol-5-yl)-7-azaspiro[3.5]nonan-7-yl)-2-(3-methyl-1,2,4-oxadiazol-5-yl)ethan-1-one]	109
Cc1noc(CC(=O)N2CCC3(CC2)CC(c2nc(C4CCC(F)(F)CC4)no2)C3)n1 [Compound 227, 1-(2-(3-(4,4-difluorocyclohexyl)-1,2,4-oxadiazol-5-yl)-7-azaspiro[3.5]nonan-7-yl)-2-(3-methyl-1,2,4-oxadiazol-5-yl)ethan-1-one]	> 10000
Cc1noc(CC(=O)N2CCC3(CC2)CC(c2nc(-c4ccc(F)c(F)c4)no2)C3)n1 [Compound 228, 1-(2-(3-(3,4-difluorophenyl)-1,2,4-oxadiazol-5-yl)-7-azaspiro[3.5]nonan-7-yl)-2-(3-methyl-1,2,4-oxadiazol-5-yl)ethan-1-one]	294
Cc1nonc1CC(=O)N1CCC2(CC1)CC(c1nc(C3CCCCC3)no1)C2 [Compound 229, 1-(2-(3-cyclohexyl-1,2,4-oxadiazol-5-yl)-7-azaspiro[3.5]nonan-7-yl)-2-(4-methyl-1,2,5-oxadiazol-3-yl)ethan-1-one]	3060
Cc1nonc1CC(=O)N1CCC2(CC1)CC(c1nc(-c3ccc(Cl)c(Cl)c3)no1)C2 [Compound 230, 1-(2-(3-(3,4-dichlorophenyl)-1,2,4-oxadiazol-5-yl)-7-azaspiro[3.5]nonan-7-yl)-2-(4-methyl-1,2,5-oxadiazol-3-yl)ethan-1-one]	176
Cc1nonc1CC(=O)N1CCC2(CC1)CC(c1nc(C3CCC(F)(F)CC3)no1)C2 [Compound 231, 1-(2-(3-(4,4-difluorocyclohexyl)-1,2,4-oxadiazol-5-yl)-7-azaspiro[3.5]nonan-7-yl)-2-(4-methyl-1,2,5-oxadiazol-3-yl)ethan-1-one]	> 10000
Cc1nonc1CC(=O)N1CCC2(CC1)CC(c1nc(-c3ccc(F)c(F)c3)no1)C2 [Compound 232, 1-(2-(3-(3,4-difluorophenyl)-1,2,4-oxadiazol-5-yl)-7-azaspiro[3.5]nonan-7-yl)-2-(4-methyl-1,2,5-oxadiazol-3-yl)ethan-1-one]	257
Cc1nonc1CC(=O)N1CCC2(CC1)CC(c1nc(-c3ccc(F)cc3)no1)C2 [Compound 233, 1-(2-(3-(4-fluorophenyl)-1,2,4-oxadiazol-5-yl)-7-azaspiro[3.5]nonan-7-yl)-2-(4-methyl-1,2,5-oxadiazol-3-yl)ethan-1-one]	450
Cc1noc(CC(=O)N2CCN(c3nc(-c4ccc(Cl)c(Cl)c4)no3)CC2)n1 [Compound 234, 1-(4-(3-(3,4-dichlorophenyl)-1,2,4-oxadiazol-5-yl)piperazin-1-yl)-2-(3-methyl-1,2,4-oxadiazol-5-yl)ethan-1-one]	> 10000
Cc1nonc1CC(=O)N1CCN(c2nc(-c3ccc(Cl)c(Cl)c3)no2)CC1 [Compound 235, 1-(4-(3-(3,4-dichlorophenyl)-1,2,4-oxadiazol-5-yl)piperazin-1-yl)-2-(4-methyl-1,2,5-oxadiazol-3-yl)ethan-1-one]	270
Cc1nonc1CC(=O)N1CCN(c2nc(-c3ccc(F)cc3)no2)CC1 [Compound 236, 1-(4-(3-(4-fluorophenyl)-1,2,4-oxadiazol-5-yl)piperazin-1-yl)-2-(4-methyl-1,2,5-oxadiazol-3-yl)ethan-1-one]	649
Cc1nonc1CC(=O)N1CCC2(CC1)CC2c1nc(-c2ccc(F)cc2)no1 (stereo not drawn) [Compound 237, 1-(1-(3-(4-fluorophenyl)-1,2,4-oxadiazol-5-yl)-6-azaspiro[2.5]octan-6-yl)-2-(4-methyl-1,2,5-oxadiazol-3-yl)ethan-1-one]	> 10000

SMILES	EC50 [nM]
Cc1noc(CC(=O)N2CCC3(CC2)CC3c2nc(-c3ccc(F)cc3)no2)n1 (stereo not drawn) [Compound 238, 1-(1-(3-(4-fluorophenyl)-1,2,4-oxadiazol-5-yl)-6-azaspiro[2.5]octan-6-yl)-2-(3-methyl-1,2,4-oxadiazol-5-yl)ethan-1-one]	> 10000
Cc1noc(CC(=O)N2CCC3(CCC3c3nc(-c4ccc(Cl)c(Cl)c4)no3)CC2)n1 (stereo not drawn) [Compound 239, 1-(1-(3-(3,4-dichlorophenyl)-1,2,4-oxadiazol-5-yl)-7-azaspiro[3.5]nonan-7-yl)-2-(3-methyl-1,2,4-oxadiazol-5-yl)ethan-1-one]	> 25000
Cc1noc(CC(=O)N2CCC3(CCC3c3nc(-c4ccc(F)cc4)no3)CC2)n1 (stereo not drawn) [Compound 240, 1-(1-(3-(4-fluorophenyl)-1,2,4-oxadiazol-5-yl)-7-azaspiro[3.5]nonan-7-yl)-2-(3-methyl-1,2,4-oxadiazol-5-yl)ethan-1-one]	> 10000
Cc1nonc1CC(=O)N1CCC2(CCC2c2nc(-c3ccc(F)cc3)no2)CC1 (stereo not drawn) [Compound 241, 1-(1-(3-(4-fluorophenyl)-1,2,4-oxadiazol-5-yl)-7-azaspiro[3.5]nonan-7-yl)-2-(4-methyl-1,2,5-oxadiazol-3-yl)ethan-1-one]	> 10000
Cc1noc(CC(=O)N2CC3CC(C2)C3n2nnc(-c3ccc(F)cc3)n2)n1 (stereo not drawn) [Compound 242, 1-(6-(5-(4-fluorophenyl)-2H-tetrazol-2-yl)-3-azabicyclo[3.1.1]heptan-3-yl)-2-(3-methyl-1,2,4-oxadiazol-5-yl)ethan-1-one]	> 25000
Cc1nonc1CC(=O)N1CC2CC(C1)C2n1nnc(-c2ccc(F)cc2)n1 (stereo not drawn) [Compound 243, 1-(6-(5-(4-fluorophenyl)-2H-tetrazol-2-yl)-3-azabicyclo[3.1.1]heptan-3-yl)-2-(4-methyl-1,2,5-oxadiazol-3-yl)ethan-1-one]	> 10000
Cc1nonc1CC(=O)N1CCCC(n2cc(C(=O)N3CCOCC3)nn2)C1 (stereo not drawn) [Compound 244, 2-(4-methyl-1,2,5-oxadiazol-3-yl)-1-(3-(4-(morpholine-4-carbonyl)-1H-1,2,3-triazol-1-yl)piperidin-1-yl)ethan-1-one]	> 10000
CCN(CC)C(=O)c1cn(C2CCCN(C(=O)Cc3nonc3C)C2)nn1 (stereo not drawn) [Compound 245, N,N-diethyl-1-(1-(2-(4-methyl-1,2,5-oxadiazol-3-yl)acetyl)piperidin-3-yl)-1H-1,2,3-triazole-4-carboxamide]	> 10000
Cc1nonc1CC(=O)N1CCCC(n2cc(C(=O)NCCO)nn2)C1 (stereo not drawn) [Compound 246, N-(2-hydroxyethyl)-1-(1-(2-(4-methyl-1,2,5-oxadiazol-3-yl)acetyl)piperidin-3-yl)-1H-1,2,3-triazole-4-carboxamide]	> 10000
Cc1nonc1CC(=O)N1CCC2(CC1)CC(n1nnc(-c3ccc(F)cc3)n1)C2 [Compound 247, 1-(2-(5-(4-fluorophenyl)-2H-tetrazol-2-yl)-7-azaspiro[3.5]nonan-7-yl)-2-(4-methyl-1,2,5-oxadiazol-3-yl)ethan-1-one]	1250
Cc1nonc1CC(=O)N1CCCC(n2nnc(-c3ccc(F)cc3)n2)C1 (stereo not drawn) [Compound 248, 1-(3-(5-(4-fluorophenyl)-2H-tetrazol-2-yl)piperidin-1-yl)-2-(4-methyl-1,2,5-oxadiazol-3-yl)ethan-1-one]	> 10000
Cc1nonc1CC(=O)N1CC2CCC(C1)C2c1nc(-c2ccc(F)cc2)no1 (stereo not drawn) [Compound 249, 1-(8-(3-(4-fluorophenyl)-1,2,4-oxadiazol-5-yl)-3-azabicyclo[3.2.1]octan-3-yl)-2-(4-methyl-1,2,5-oxadiazol-3-yl)ethan-1-one]	1290
Cc1nonc1CC(=O)N1CCN(c2ncn(-c3ccc(F)cc3)n2)CC1 [Compound 250, 1-(4-(1-(4-fluorophenyl)-1H-1,2,4-triazol-3-yl)piperazin-1-yl)-2-(4-methyl-1,2,5-oxadiazol-3-yl)ethan-1-one]	> 10000
Cc1nonc1NC(=O)C1CCC(c2nc(-c3ccc(F)cc3)no2)CC1 (stereo not drawn) [Compound 251, 4-(3-(4-fluorophenyl)-1,2,4-oxadiazol-5-yl)-N-(4-methyl-1,2,5-oxadiazol-3-yl)cyclohexane-1-carboxamide]	> 10000
Cc1nonc1CC(=O)N1CCC(c2cnc(-c3ccc(F)cc3)nc2)CC1 [Compound 252, 1-(4-(2-(4-fluorophenyl)pyrimidin-5-yl)piperidin-1-yl)-2-(4-methyl-1,2,5-oxadiazol-3-yl)ethan-1-one]	2910
Cc1nonc1CC(=O)N1CCC(c2ncc(-c3ccc(F)cc3)cn2)CC1 [Compound 253, 1-(4-(5-(4-fluorophenyl)pyrimidin-2-yl)piperidin-1-yl)-2-(4-methyl-1,2,5-oxadiazol-3-yl)ethan-1-one]	> 10000
